Measured values published in patent US8975214B2, “Emulsion adjuvant for herbicides” (Innovative Chemical Services Pty Ltd, priority 2010, dated 2015).

Test system: Oats
Test: Glasshouse trial: adjuvant effect when applied with glyphosate to control oats
Type: in vivo
Settings: no adjuvant, 14 days after treatment
Text: In this example, the adjuvant effect of Compositions C and D from Example 1 was compared with a range of commercially available adjuvants when applied with glyphosate in 2 water hardnesses to control oats in a glasshouse.

O=C(O)CNCP(=O)(O)O [Glyphosate, glyphosate]
Fresh Weight % of untreated control (glyphosate 50 g a.i./ha, water hardness 50 ppm CaCO3, oats 1.5-2 leaf): 73 % of untreated control | Fresh Weight % of untreated control (glyphosate 50 g a.i./ha, water hardness 300 ppm CaCO3): 106 % of untreated control | Fresh Weight % of untreated control (glyphosate 100 g a.i./ha, water hardness 50 ppm CaCO3): 52 % of untreated control | Fresh Weight % of untreated control (glyphosate 100 g a.i./ha, water hardness 300 ppm CaCO3): 65 % of untreated control
